Assay results reported in ChEMBL document CHEMBL4130345, “Discovery of a series of dihydroquinoxalin-2(1H)-ones as selective BET inhibitors from a dual PLK1-BRD4 inhibitor” (Eur J Med Chem, 2017).
Calls of active or inactive are those of the source. No cut-off for these calls is given here.

What was measured:
[1] = target: T1, Bromodomain-containing protein 4 (Homo sapiens, UniProt O60885); assay: Inhibition of JQ1-FITC binding to His6-tagged BRD4-BD1 (unknown origin) expressed in Escherichia coli BL21 (DE3)-codon plus-RIL cells incubated in dark for 4 hrs by fluorescence anisotropy assay
[2] = target: T1, Bromodomain-containing protein 4; assay: Inhibition of BRD4 in human TY82 cells assessed as downregulation of c-Myc protein expression at 0.2 to 1 uM after 24 hrs by Western blot method; assay type: cell-based
[3] = AUC (0 to t) in ICR (CD-1) mouse at 10 mg/kg, po; assay type: ADME, organism-based; details: in vivo
[4] = Half life in ICR (CD-1) mouse at 10 mg/kg, po; assay type: ADME, organism-based; details: in vivo
[5] = Plasma concentration in ICR (CD-1) mouse at 10 mg/kg, po after 24 hrs; assay type: ADME, organism-based
[6] = target: ATPase family AAA domain-containing protein 2B (Homo sapiens) (UniProt Q9ULI0); assay: Inhibition of human partial length ATAD2B (Q955 to R1082 residues) expressed in Escherichia coli BL21 assessed as residual activity at 1 uM after 1 hr by qPCR method relative to control
[7] = target: Bromodomain adjacent to zinc finger domain protein 2A (Homo sapiens) (UniProt Q9UIF9); assay: Inhibition of human partial length BAZ2A (M1792 to L1905 residues) expressed in Escherichia coli BL21 assessed as residual activity at 1 uM after 1 hr by qPCR method relative to control
[8] = target: Bromodomain-containing protein 1 (Homo sapiens) (UniProt O95696); assay: Inhibition of human partial length BRD1 (E556 to A688 residues) expressed in Escherichia coli BL21 assessed as residual activity at 1 uM after 1 hr by qPCR method relative to control
Bromodomain-containing protein 1 (Homo sapiens), sequence (O95696 whole entry, the tested form may be a part): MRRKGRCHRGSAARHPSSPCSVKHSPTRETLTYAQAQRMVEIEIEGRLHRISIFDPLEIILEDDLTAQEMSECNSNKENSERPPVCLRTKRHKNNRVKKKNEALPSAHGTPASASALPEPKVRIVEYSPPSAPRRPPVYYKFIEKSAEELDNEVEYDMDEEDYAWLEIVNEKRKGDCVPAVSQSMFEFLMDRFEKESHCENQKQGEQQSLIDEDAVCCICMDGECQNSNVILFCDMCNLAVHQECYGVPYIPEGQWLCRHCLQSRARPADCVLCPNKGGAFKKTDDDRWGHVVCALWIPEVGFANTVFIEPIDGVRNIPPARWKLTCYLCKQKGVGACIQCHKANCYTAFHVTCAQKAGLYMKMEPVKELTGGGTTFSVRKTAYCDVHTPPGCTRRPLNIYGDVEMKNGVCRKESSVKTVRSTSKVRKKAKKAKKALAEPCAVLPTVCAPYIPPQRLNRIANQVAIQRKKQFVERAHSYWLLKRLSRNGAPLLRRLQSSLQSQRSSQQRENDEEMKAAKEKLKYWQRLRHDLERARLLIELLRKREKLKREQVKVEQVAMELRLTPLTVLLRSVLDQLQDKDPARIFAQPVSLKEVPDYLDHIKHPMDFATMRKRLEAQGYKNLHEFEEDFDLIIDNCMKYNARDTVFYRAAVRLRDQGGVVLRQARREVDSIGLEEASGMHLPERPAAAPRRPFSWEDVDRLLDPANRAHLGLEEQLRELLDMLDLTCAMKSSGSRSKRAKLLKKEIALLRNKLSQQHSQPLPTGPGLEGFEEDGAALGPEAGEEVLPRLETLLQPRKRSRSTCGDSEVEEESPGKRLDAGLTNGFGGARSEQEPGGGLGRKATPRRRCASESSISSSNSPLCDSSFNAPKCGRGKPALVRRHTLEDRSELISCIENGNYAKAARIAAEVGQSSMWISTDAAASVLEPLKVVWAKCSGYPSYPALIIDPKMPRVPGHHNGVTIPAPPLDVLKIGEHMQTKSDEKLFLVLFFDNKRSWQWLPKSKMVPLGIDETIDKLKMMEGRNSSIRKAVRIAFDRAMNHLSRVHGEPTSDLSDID

[9] = target: Bromodomain-containing protein 3 (Homo sapiens) (UniProt Q15059); assay: Inhibition of human partial length BRD3 bromodomain 2 (G306 to P416 residues) expressed in Escherichia coli BL21 assessed as residual activity at 1 uM after 1 hr by qPCR method relative to control
[10] = target: Bromodomain testis-specific protein (Homo sapiens) (UniProt Q58F21); assay: Inhibition of human partial length BRDT bromodomain 1 (N21 to E137 residues) expressed in Escherichia coli BL21 assessed as residual activity at 1 uM after 1 hr by qPCR method relative to control
[11] = target: Bromodomain testis-specific protein (Homo sapiens) (UniProt Q58F21); assay: Inhibition of human partial length BRDT bromodomain 2 (K250 to E382 residues) expressed in Escherichia coli BL21 assessed as residual activity at 1 uM after 1 hr by qPCR method relative to control
[12] = target: Peregrin (Homo sapiens) (UniProt P55201); assay: Inhibition of human partial length BRPF1 (E627 to G740 residues) expressed in Escherichia coli BL21 assessed as residual activity at 1 uM after 1 hr by qPCR method relative to control
Peregrin (Homo sapiens), sequence (P55201 whole entry, the tested form may be a part): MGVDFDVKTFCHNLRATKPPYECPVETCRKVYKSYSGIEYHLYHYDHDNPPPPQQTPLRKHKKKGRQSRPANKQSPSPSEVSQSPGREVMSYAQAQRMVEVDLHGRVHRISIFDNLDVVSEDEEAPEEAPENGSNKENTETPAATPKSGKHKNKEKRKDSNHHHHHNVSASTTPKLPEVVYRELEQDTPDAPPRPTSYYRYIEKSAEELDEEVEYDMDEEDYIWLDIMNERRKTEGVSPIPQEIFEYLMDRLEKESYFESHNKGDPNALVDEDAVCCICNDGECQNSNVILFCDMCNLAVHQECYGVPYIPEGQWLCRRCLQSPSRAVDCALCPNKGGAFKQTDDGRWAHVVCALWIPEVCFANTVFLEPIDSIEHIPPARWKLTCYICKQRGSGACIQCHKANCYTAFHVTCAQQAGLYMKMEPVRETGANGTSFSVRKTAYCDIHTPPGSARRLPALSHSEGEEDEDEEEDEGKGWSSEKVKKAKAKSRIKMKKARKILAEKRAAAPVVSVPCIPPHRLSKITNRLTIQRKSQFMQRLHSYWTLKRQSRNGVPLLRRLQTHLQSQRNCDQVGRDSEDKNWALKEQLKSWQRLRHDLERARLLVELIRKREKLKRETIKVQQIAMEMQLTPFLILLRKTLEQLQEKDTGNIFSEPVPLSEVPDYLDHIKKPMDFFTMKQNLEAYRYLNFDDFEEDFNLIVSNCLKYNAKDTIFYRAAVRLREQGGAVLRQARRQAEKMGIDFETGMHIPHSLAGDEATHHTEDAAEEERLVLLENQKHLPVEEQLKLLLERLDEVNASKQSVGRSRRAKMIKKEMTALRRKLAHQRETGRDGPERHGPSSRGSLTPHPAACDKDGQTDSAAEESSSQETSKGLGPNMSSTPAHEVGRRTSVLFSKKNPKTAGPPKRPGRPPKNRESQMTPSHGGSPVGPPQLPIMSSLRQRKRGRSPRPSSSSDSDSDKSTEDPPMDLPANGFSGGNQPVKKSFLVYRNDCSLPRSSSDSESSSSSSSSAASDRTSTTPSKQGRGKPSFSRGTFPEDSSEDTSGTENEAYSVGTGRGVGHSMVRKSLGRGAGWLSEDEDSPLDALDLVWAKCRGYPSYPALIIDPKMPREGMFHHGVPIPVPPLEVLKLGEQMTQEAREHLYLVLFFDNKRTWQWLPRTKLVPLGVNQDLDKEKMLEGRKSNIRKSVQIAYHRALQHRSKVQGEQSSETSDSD

[13] = target: Nucleosome-remodeling factor subunit BPTF (Homo sapiens) (UniProt Q12830); assay: Inhibition of human partial length FALZ (S2791 to H2911 residues) expressed in Escherichia coli BL21 assessed as residual activity at 1 uM after 1 hr by qPCR method relative to control
[14] = target: Histone acetyltransferase KAT2B (Homo sapiens) (UniProt Q92831); assay: Inhibition of human partial length PCAF (G715 to D831 residues) expressed in Escherichia coli BL21 assessed as residual activity at 1 uM after 1 hr by qPCR method relative to control
[15] = target: Transcription initiation factor TFIID subunit 1-like (Homo sapiens) (UniProt Q8IZX4); assay: Inhibition of human partial length TAF1L bromodomain 2 (Q1523 to D1654 residues) expressed in Escherichia coli BL21 assessed as residual activity at 1 uM after 1 hr by qPCR method relative to control
[16] = target: Bromodomain and WD repeat-containing protein 1 (Homo sapiens) (UniProt Q9NSI6); assay: Inhibition of human partial length BRWD1 (A1310 to E1430 residues) expressed in Escherichia coli BL21 assessed as residual activity at 1 uM after 1 hr by qPCR method relative to control
Bromodomain and WD repeat-containing protein 1 (Homo sapiens), sequence (Q9NSI6 whole entry, the tested form may be a part): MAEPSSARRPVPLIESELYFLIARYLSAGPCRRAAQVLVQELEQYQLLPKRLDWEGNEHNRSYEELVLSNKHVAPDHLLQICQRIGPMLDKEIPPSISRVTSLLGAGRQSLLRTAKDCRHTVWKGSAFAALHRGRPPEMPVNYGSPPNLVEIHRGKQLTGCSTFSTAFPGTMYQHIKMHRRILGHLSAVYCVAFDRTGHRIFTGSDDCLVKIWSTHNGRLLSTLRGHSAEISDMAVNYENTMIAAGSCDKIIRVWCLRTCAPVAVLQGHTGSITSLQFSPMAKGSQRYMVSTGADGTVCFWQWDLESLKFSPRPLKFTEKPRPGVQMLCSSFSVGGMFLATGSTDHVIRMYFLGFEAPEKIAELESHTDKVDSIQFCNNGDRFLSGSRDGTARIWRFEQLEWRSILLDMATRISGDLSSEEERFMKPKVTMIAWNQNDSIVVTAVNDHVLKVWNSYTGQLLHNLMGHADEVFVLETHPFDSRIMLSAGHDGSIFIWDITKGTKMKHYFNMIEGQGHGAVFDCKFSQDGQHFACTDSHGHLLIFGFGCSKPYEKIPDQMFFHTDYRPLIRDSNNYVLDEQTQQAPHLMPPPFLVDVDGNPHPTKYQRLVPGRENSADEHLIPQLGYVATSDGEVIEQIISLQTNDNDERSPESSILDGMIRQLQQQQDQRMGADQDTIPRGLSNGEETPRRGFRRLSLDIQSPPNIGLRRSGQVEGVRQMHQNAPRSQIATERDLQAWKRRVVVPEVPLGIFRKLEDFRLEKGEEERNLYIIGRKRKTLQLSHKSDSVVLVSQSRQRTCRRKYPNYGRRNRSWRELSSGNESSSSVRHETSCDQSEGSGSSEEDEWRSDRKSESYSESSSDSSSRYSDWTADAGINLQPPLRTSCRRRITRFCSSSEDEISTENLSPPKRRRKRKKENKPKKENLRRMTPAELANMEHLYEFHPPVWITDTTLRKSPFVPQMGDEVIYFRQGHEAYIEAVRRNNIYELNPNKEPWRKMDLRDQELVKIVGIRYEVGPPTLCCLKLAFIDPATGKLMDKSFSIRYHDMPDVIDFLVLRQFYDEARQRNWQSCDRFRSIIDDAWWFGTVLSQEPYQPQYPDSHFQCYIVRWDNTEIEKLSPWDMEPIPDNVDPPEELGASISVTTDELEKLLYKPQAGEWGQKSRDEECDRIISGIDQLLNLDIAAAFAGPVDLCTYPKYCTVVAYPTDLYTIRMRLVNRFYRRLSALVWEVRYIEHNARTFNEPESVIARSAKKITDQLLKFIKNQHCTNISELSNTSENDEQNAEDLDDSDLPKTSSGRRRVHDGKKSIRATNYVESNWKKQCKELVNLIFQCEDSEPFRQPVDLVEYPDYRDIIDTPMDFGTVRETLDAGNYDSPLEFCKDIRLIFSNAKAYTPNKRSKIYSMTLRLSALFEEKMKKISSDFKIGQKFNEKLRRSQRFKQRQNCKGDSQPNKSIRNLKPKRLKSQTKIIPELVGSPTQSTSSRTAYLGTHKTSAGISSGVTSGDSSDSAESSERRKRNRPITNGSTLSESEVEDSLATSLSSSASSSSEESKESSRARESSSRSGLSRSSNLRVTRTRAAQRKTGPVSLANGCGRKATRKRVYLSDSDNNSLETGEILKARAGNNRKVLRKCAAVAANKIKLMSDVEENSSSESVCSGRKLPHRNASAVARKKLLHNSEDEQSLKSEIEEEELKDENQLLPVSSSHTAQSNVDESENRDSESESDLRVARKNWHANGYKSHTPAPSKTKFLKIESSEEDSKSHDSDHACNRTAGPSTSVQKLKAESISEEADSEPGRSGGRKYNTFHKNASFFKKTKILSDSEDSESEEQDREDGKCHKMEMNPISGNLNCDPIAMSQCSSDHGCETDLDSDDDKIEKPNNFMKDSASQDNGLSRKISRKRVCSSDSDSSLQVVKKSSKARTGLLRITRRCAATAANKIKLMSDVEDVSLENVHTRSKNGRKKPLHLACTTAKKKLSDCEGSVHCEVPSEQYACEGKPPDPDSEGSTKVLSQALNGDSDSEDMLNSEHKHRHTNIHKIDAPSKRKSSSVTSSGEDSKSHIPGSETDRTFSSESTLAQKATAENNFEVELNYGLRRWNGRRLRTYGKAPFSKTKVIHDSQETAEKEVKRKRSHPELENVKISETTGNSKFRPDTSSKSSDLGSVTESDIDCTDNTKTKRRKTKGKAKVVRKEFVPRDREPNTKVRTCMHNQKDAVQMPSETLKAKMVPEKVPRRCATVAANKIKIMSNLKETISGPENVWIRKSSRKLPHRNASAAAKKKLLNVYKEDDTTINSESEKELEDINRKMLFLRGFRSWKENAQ

IC50 [1]: 45 nM | inhibition [2]: Active | AUC(0-t) [3]: 1680 ng·h/mL | half-life [4]: 2.23 h | concentration at 24 h [5]: < 0.3 ng/mL | Activity [6]: 100% | Activity [7]: 83% | Activity [8]: 57% | Activity [9]: 0.3% | Activity [10]: 3.1% | Activity [11]: 0% | Activity [12]: 100% | Activity [13]: 96% | Activity [14]: 96% | Activity [15]: 88% | Activity [16]: 73%
Compound: Cc1ccc([C@H](C)Nc2ccc3c(c2)N(C2CC2)[C@H](C)C(=O)N3C)c(C)c1
